# Where a SMILES comes first, the peptide text is derived from it. Bridges are numbered along the chain shown (N, C = ends). [ ]: non-standard residue; d: D form. The star is where a group is joined. hPhe(3-Cl-4-CF3) = N[C@@H](CCc1ccc(C(F)(F)F)c(Cl)c1)C(=O)O; NPrPhe(4-CF3) = CCCN[C@@H](Cc1ccc(C(F)(F)F)cc1)C(=O)O; NMeGly(cPent) = CN[C@H](C(=O)O)C1CCCC1; Pro(4,4-F2) = O=C(O)[C@@H]1CC(F)(F)CN1; NMeD = CN[C@@H](CC(=O)O)C(=O)O; NMeL = CN[C@@H](CC(C)C)C(=O)O; Morpholide = C1CN(*)CCO1; Ac5c = NC1(C(=O)O)CCCC1; Aze = O=C(O)[C@@H]1CCN1; Sar = CNCC(=O)O
# Tests used:
# [1] = target: GDP-bound HRAS wild-type protein (Homo sapiens, UniProt P01112); assay: Binding to HRAS by surface plasmon resonance (SPR), Single Cycle Kinetics; conditions: SPR; for HRAS/KRAS (ratio of KD value with respect to HRAS to KD value with respect to KRAS): GDP-bound HRAS wild-type vs GDP-bound KRAS wild-type
# Sequence of GDP-bound HRAS wild-type protein (P01112 whole entry): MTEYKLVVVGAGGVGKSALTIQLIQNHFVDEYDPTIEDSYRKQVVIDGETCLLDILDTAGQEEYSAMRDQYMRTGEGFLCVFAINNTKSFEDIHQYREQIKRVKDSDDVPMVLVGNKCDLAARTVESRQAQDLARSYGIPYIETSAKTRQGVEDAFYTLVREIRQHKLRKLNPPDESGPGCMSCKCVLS
# [2] = target: GDP-bound NRAS wild-type protein (Homo sapiens, UniProt P01111); assay: Binding to NRAS by surface plasmon resonance (SPR), Single Cycle Kinetics; conditions: SPR; for NRAS/KRAS (ratio of KD value with respect to NRAS to KD value with respect to KRAS): GDP-bound NRAS wild-type vs GDP-bound KRAS wild-type
# Sequence of GDP-bound NRAS wild-type protein (P01111 whole entry): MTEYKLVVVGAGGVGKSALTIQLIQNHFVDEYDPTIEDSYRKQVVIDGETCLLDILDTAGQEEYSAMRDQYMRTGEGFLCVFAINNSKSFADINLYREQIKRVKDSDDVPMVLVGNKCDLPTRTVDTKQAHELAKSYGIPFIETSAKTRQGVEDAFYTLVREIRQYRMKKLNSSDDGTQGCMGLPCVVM
compound,measurement,setting,value
"CCCN1C(=O)CN(C)C(=O)[C@@H]2CCN2C(=O)[C@H]([C@@H](C)CC)NC(=O)[C@H](CC(C)C)N(C)C(=O)C[C@@H](C(=O)N2CCOCC2)N(C)C(=O)[C@H](C2CCCC2)N(C)C(=O)C2(CCCC2)NC(=O)[C@@H]2CC(F)(F)CN2C(=O)[C@H](CCc2ccc(C(F)(F)F)c(Cl)c2)NC(=O)CN(C)C(=O)[C@@H]1Cc1ccc(C(F)(F)F)cc1 [PP0403] ([NMeL]I[Aze][Sar][NPrPhe(4-CF3)][Sar][hPhe(3-Cl-4-CF3)][Pro(4,4-F2)][Ac5c][NMeGly(cPent)][NMeD]-Morpholide; lactam N-11)",HRAS/KRAS (ratio of KD for GDP-bound HRAS wild-type to KD for KRAS),[1]; KD ratio HRAS/KRAS,B (a compound having 3 or more and less than 10 is denoted as B)
same,NRAS/KRAS (ratio of KD for GDP-bound NRAS wild-type to KD for KRAS),[2]; KD ratio NRAS/KRAS,B (a compound having 3 or more and less than 10 is denoted as B)
C#CC[C@H]1C(=O)N[C@@H]([C@@H](C)CC)C(=O)N(C)CC(=O)N(C)[C@H]2C/C=C\CCN(C2=O)[C@@H](Cc2ccc(C(F)(F)F)cc2)C(=O)N(C)CC(=O)N[C@@H](CCc2ccc(C(F)(F)F)c(OC)c2)C(=O)N2C[C@@H](C)C[C@H]2C(=O)NC2(CC(C)(C)C2)C(=O)N(C)[C@@H](C2CCCC2)C(=O)N(C)[C@H](C(=O)N(C)CC)CC(=O)N1C [PP2055],HRAS/KRAS (ratio of KD value with respect to HRAS to KD value with respect to KRAS),[1],B (a compound having 3 or more and less than 10 is denoted as B)
same,NRAS/KRAS (ratio of KD value with respect to NRAS to KD value with respect to KRAS),[2],A (a compound having 10 or more and less than 20 is denoted as A)
CC[C@H](C)[C@@H]1NC(=O)[C@H](CC(C)C)N(C)C(=O)C[C@@H](C(=O)N2CCOCC2)N(C)C(=O)[C@H](C2CCCC2)N(C)C(=O)C2(CCCC2)NC(=O)[C@@H]2CC(F)(F)CN2C(=O)[C@H](CCc2cc(F)c(C(F)(F)F)c(F)c2)NC(=O)CN(C)C(=O)[C@H](Cc2ccc(C(F)(F)F)cc2)N2CCCCC[C@@H](C2=O)N(C)C(=O)CN(C)C1=O [PP0491],HRAS/KRAS (ratio of KD value with respect to GDP-bound HRAS wild-type protein to KD value with respect to KRAS),[1]; KD ratio HRAS/KRAS,B (a compound having 3 or more and less than 10 is denoted as B)
same,NRAS/KRAS (ratio of KD value with respect to GDP-bound NRAS wild-type protein to KD value with respect to KRAS),[2]; KD ratio NRAS/KRAS,B (a compound having 3 or more and less than 10 is denoted as B)
CCO[C@@H]1C[C@H]2C(=O)NC3(CCC3)C(=O)N(C)[C@@H](C3CCCC3)C(=O)N(CCC3CCCC3)[C@H](C(=O)N(C)C)CC(=O)N(C)[C@@H](CC)C(=O)N[C@@H]([C@@H](C)CC)C(=O)N(C)CC(=O)N(C)[C@H]3C/C=C\CCN(C3=O)[C@@H](Cc3ccc(C(F)(F)F)cc3)C(=O)N(C)CC(=O)N[C@@H](CCc3cc(F)c(C(F)(F)F)c(F)c3)C(=O)N2C1 [PP0982],HRAS/KRAS (ratio of KD value with respect to HRAS to KD value with respect to KRAS),[1]; KD ratio,A (a compound having 10 or more and less than 20 is denoted as A)
same,NRAS/KRAS (ratio of KD value with respect to NRAS to KD value with respect to KRAS),[2]; KD ratio,AA (a compound having 20 or more is denoted as AA)
CCCOC[C@H]1C(=O)N[C@@H]([C@@H](C)CC)C(=O)N2CCC[C@H]2C(=O)N(C)[C@H]2C/C=C\CCN(C2=O)[C@@H](Cc2ccc(C)cc2)C(=O)N(C)CC(=O)N[C@@H](CCc2ccc(C(F)(F)F)c(OC)c2)C(=O)N2C[C@H](OCC)C[C@H]2C(=O)N(C)C2(CCC2)C(=O)N(C)[C@@H](C2CCCC2)C(=O)N(C)[C@H](C(=O)N(C)C)CC(=O)N1C [PP2334],HRAS/KRAS (ratio of KD value with respect to HRAS to KD value with respect to KRAS),[1],B (a compound having 3 or more and less than 10 is denoted as B)
same,NRAS/KRAS (ratio of KD value with respect to NRAS to KD value with respect to KRAS),[2],A (a compound having 10 or more and less than 20 is denoted as A)
CCO[C@@H]1C[C@H]2C(=O)NC3(CCC3)C(=O)N(C)[C@@H](C3CCCC3)C(=O)N(C)[C@H](C(=O)N3CCOCC3)CC(=O)N(C)[C@@H](Cc3cccc(Cl)c3)C(=O)N[C@@H]([C@@H](C)CC)C(=O)N(C)CC(=O)N(C)[C@H]3CCCCCN(C3=O)[C@@H](Cc3ccc(C(F)(F)F)cc3)C(=O)N(C)CC(=O)N[C@@H](CCc3cc(F)c(C(F)(F)F)c(F)c3)C(=O)N2C1 [PP0857],HRAS/KRAS (ratio of KD value with respect to HRAS to KD value with respect to KRAS),[1]; KD ratio,B (a compound having 3 or more and less than 10 is denoted as B)
same,NRAS/KRAS (ratio of KD value with respect to NRAS to KD value with respect to KRAS),[2]; KD ratio,B (a compound having 3 or more and less than 10 is denoted as B)
C#CCN1CC(=O)N(C)[C@H]2C/C=C\CCN(C2=O)[C@@H](Cc2ccc(C(F)(F)F)cc2)C(=O)N(C)CC(=O)N[C@@H](CCc2ccc(C(F)(F)F)c(OC)c2)C(=O)N2C[C@H](OCC)C[C@H]2C(=O)NC2(CC(C)(C)C2)C(=O)N(C)[C@@H](C2CCCC2)C(=O)N(C)[C@H](C(=O)N(C)C)CC(=O)N(C)[C@@H](CC)C(=O)N[C@@H]([C@@H](C)CC)C1=O [PP2091],HRAS/KRAS (ratio of KD value with respect to HRAS to KD value with respect to KRAS),[1],B (a compound having 3 or more and less than 10 is denoted as B)
same,NRAS/KRAS (ratio of KD value with respect to NRAS to KD value with respect to KRAS),[2],A (a compound having 10 or more and less than 20 is denoted as A)

# Source: US20250230193A1, “CYCLIC COMPOUND HAVING SELECTIVE KRAS INHIBITORY EFFECT ON HRAS AND NRAS” (CHUGAI SEIYAKU KABUSHIKI KAISHA, priority 2022, published 2025)
